Reference: patent US11466016B2, “Pharmaceutical compounds” (priority 2018, dated 2022)
Counter-ions that a name gives are not always drawn.

Each molecule was assayed against SHP2 (Homo sapiens (Human), UniProt Q06124) (assay: SHP2 Biochemical Assay (DiFMUP conversion, pIRS1 activating peptide)). Conditions: DiFMUP substrate, 0.25 μM pIRS1 peptide, 30 min pre-incubation; average where more than one data point; read-out: SHP2 (IC50).
Description: SHP2 activity was monitored by measuring the conversion of the surrogate substrate 6,8-difluoromethylumbelliferyl phosphate (DiFMUP) to the fluorescent product, 6,8-difluoromethylumbelliferone (DiFMU).
SHP2 was pre-incubated with test compounds and the activating peptide pIRS1 (H2N-LN(pY)IDLDLV-(PEG)8-LST(pY)ASINFQK-amide) for 30 min, prior to addition of the […] (DiFMUP), (Thermo Fisher D6567). […] Rates of reaction were then measured over 30 min by monitoring fluorescence on a BMG Pherastar reader at excitation 360 nm/emission 450 nm. IC50 values were calculated from the normalized dose-response plots using four parameter logistic curve fit.

Sequence of SHP2 (Q06124 whole entry): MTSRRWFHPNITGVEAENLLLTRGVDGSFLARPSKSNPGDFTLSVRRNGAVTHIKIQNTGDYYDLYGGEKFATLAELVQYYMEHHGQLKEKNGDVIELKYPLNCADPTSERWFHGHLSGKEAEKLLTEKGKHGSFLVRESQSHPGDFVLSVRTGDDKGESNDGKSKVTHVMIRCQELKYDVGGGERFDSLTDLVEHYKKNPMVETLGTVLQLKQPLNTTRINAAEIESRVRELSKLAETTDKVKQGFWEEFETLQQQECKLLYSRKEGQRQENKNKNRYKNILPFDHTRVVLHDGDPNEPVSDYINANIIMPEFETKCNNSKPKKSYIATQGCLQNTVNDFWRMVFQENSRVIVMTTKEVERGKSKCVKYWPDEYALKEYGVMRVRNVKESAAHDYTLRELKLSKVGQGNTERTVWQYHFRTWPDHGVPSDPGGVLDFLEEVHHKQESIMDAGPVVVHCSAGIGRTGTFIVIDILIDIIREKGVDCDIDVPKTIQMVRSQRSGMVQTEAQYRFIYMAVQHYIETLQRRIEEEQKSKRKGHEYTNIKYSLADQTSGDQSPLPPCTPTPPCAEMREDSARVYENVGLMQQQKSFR

Compound | IC50 [µM]
Cn1cc2c(Cl)c(-c3c[nH]c4nc(N5[C@@H]6CC[C@H]5C[C@@](C)(N)C6)cnc34)ccc2n1 [Example 8, endo-8-[7-(4-chloro-2-methyl-2H-indazol-5-yl)-5H-pyrrolo[2,3-b]pyrazin-3-yl]-3-methyl-8-azabicyclo[3.2.1]octan-3-amine, methanesulfonic acid salt] | 0.017
Cn1cc2c(Cl)c(-c3c[nH]c4nc(N5C6CCC5CNC6)cnc34)ccc2n1 [Example 9, 4-chloro-5-(3-{3,8-diazabicyclo[3.2.1]octan-8-yl}-5H-pyrrolo[2,3-b]pyrazin-7-yl)-2-methyl-2H-indazole] | 0.026
Cn1cc2c(Cl)c(-c3c[nH]c4nc(N5CCC6(CC5)CNC6)cnc34)ccc2n1 [Example 10, 7-[7-(4-chloro-2-methyl-2H-indazol-5-yl)-5H-pyrrolo[2,3-b]pyrazin-3-yl]-2,7-diazaspiro[3.5]nonane] | 0.014
Cc1nc2c(-c3ccc4nn(C)cc4c3Cl)c[nH]c2nc1N1CCC(C)(CN)CC1 [Example 11, 1-{1-[7-(4-chloro-2-methyl-2H-indazol-5-yl)-2-methyl-5H-pyrrolo[2,3-b]pyrazin-3-yl]-4-methylpiperidin-4-yl]methanamine, dihydrochloride salt] | 0.043
N[C@H]1C[C@H]2CC[C@@H](C1)N2c1cnc2c(-c3ccc4ncsc4c3Cl)c[nH]c2n1 [Example 13, endo-8-[7-(7-chloro-1,3-benzothiazol-6-yl)-5H-pyrrolo[2,3-b]pyrazin-3-yl]-8-azabicyclo[3.2.1]octan-3-amine, methanesulfonic acid salt] | 0.0062
Cc1nc2c(-c3ccc4nn(C)cc4c3Cl)c[nH]c2nc1N1CCC(C)(N)CC1 [Example 14, 1-[7-(4-chloro-2-methyl-2H-indazol-5-yl)-2-methyl-5H-pyrrolo[2,3-b]pyrazin-3-yl]-4-methylpiperidin-4-amine] | 0.089
Cc1nc2ccc(-c3c[nH]c4nc(N5[C@@H]6CC[C@H]5C[C@@H](N)C6)cnc34)c(Cl)c2s1 [Example 15, endo-8-[7-(7-chloro-2-methyl-1,3-benzothiazol-6-yl)-5H-pyrrolo[2,3-b]pyrazin-3-yl]-8-azabicyclo[3.2.1]octan-3-amine, methanesulfonic acid salt] | 0.0059
Cn1cc2c(Cl)c(-c3c[nH]c4nc(N5CCC6(CCN6)CC5)cnc34)ccc2n1 [Example 16, 7-[7-(4-chloro-2-methyl-2H-indazol-5-yl)-5H-pyrrolo[2,3-b]pyrazin-3-yl]-1,7-diazaspiro[3.5]nonane] | 0.024
Cc1nc2c(-c3ccc4nn(C)cc4c3Cl)c[nH]c2nc1N1[C@@H]2CC[C@H]1C[C@@H](N)C2 [Example 17, endo-8-[7-(4-chloro-2-methyl-2H-indazol-5-yl)-2-methyl-5H-pyrrolo[2,3-b]pyrazin-3-yl]-8-azabicyclo[3.2.1]octan-3-amine] | 0.02
CN(C)c1nc2ccc(-c3c[nH]c4nc(N5[C@@H]6CC[C@H]5C[C@@H](N)C6)cnc34)c(Cl)c2s1 [Example 18, 6-{3-[endo-3-amino-8-azabicyclo[3.2.1]octan-8-yl]-5H-pyrrolo[2,3-b]pyrazin-7-yl}-7-chloro-N,N-dimethyl-1,3-benzothiazol-2-amine, hydrochloride salt] | 0.013
N[C@H]1C[C@H]2CC[C@@H](C1)N2c1cnc2c(-c3ccc4oc(=O)[nH]c4c3Cl)c[nH]c2n1 [Example 19, 5-{3-[endo-3-amino-8-azabicyclo[3.2.1]octan-8-yl]-5H-pyrrolo[2,3-b]pyrazin-7-yl}-4-chloro-2,3-dihydro-1,3-benzoxazol-2-one, hydrochloride salt] | 0.047
Cc1nc2c(-c3ccc4nn(C)cc4c3Cl)c[nH]c2nc1N1[C@@H]2CC[C@H]1C[C@H](N)C2 [Example 20, exo-8-[7-(4-chloro-2-methyl-2H-indazol-5-yl)-2-methyl-5H-pyrrolo[2,3-b]pyrazin-3-yl]-8-azabicyclo[3.2.1]octan-3-amine] | 0.01
Cc1nc2ccc(-c3c[nH]c4nc(N5[C@@H]6CC[C@H]5C[C@@H](N)C6)cnc34)c(Cl)c2c(=O)[nH]1 [Example 21, 6-{3-[endo-3-amino-8-azabicyclo[3.2.1]octan-8-yl]-5H-pyrrolo[2,3-b]pyrazin-7-yl}-5-chloro-2-methyl-3,4-dihydroquinazolin-4-one] | 0.011
CN(C)c1ccc2ccc(-c3c[nH]c4nc(N5[C@@H]6CC[C@H]5C[C@@H](N)C6)cnc34)c(Cl)c2n1 [Example 22, 7-{3-[endo-3-amino-8-azabicyclo[3.2.1]octan-8-yl]-5H-pyrrolo[2,3-b]pyrazin-7-yl}-8-chloro-N,N-dimethylquinolin-2-amine, hydrochloride salt] | 0.026
N[C@H]1C[C@H]2CC[C@@H](C1)N2c1cnc2c(-c3ccc4[nH]c(=O)sc4c3Cl)c[nH]c2n1 [Example 23, 6-{3-[endo-3-amino-8-azabicyclo[3.2.1]octan-8-yl]-5H-pyrrolo[2,3-b]pyrazin-7-yl}-7-chloro-2,3-dihydro-1,3-benzothiazol-2-one, hydrochloride salt] | 0.0052
Cn1nc2ccc(-c3c[nH]c4nc(N5[C@@H]6CC[C@H]5C[C@@H](N)C6)cnc34)c(Cl)c2c1Cl [Example 24, endo-8-[7-(3,4-dichloro-2-methyl-2H-indazol-5-yl)-5H-pyrrolo[2,3-b]pyrazin-3-yl]-8-azabicyclo[3.2.1]octan-3-amine, methanesulfonic acid salt] | 0.0043
Cn1cc2c(Cl)c(-c3c[nH]c4nc(N5CCC6(CNC6)C(F)(F)C5)cnc34)ccc2n1 [Example 25, 7-[7-(4-chloro-2-methyl-2H-indazol-5-yl)-5H-pyrrolo[2,3-b]pyrazin-3-yl]-5,5-difluoro-2,7-diazaspiro[3.5]nonane, hydrochloride salt] | 0.052
CCn1cc2c(Cl)c(-c3c[nH]c4nc(N5[C@@H]6CC[C@H]5C[C@@H](N)C6)cnc34)ccc2n1 [Example 26, endo-8-[7-(4-chloro-2-ethyl-2H-indazol-5-yl)-5H-pyrrolo[2,3-b]pyrazin-3-yl]-8-azabicyclo[3.2.1]octan-3-amine, hydrochloride salt] | 0.014
CCn1cc2c(Cl)c(-c3c[nH]c4nc(N5[C@@H]6CC[C@H]5C[C@H](N)C6)cnc34)ccc2n1 [Example 28, exo-8-[7-(4-chloro-2-ethyl-2H-indazol-5-yl)-5H-pyrrolo[2,3-b]pyrazin-3-yl]-8-azabicyclo[3.2.1]octan-3-amine, hydrochloride salt] | 0.0096
Cn1cc2c(Cl)c(-c3c[nH]c4nc(N5CC[C@@H](N)[C@H](F)C5)cnc34)ccc2n1 [Example 29, (3R,4R)-1-[7-(4-chloro-2-methyl-2H-indazol-5-yl)-5H-pyrrolo[2,3-b]pyrazin-3-yl]-3-fluoropiperidin-4-amine, hydrochloride salt] | 0.041
Cn1cc2c(Cl)c(-c3c[nH]c4nc(N5CC[C@H](N)[C@@H](F)C5)cnc34)ccc2n1 [Example 30, (3S,4S)-1-[7-(4-chloro-2-methyl-2H-indazol-5-yl)-5H-pyrrolo[2,3-b]pyrazin-3-yl]-3-fluoropiperidin-4-amine, hydrochloride salt] | 0.15
Cn1cc2c(Cl)c(-c3c[nH]c4nc(N5CC[C@H](N)[C@@H](O)C5)cnc34)ccc2n1 [Example 31, (3S,4S)-4-amino-1-[7-(4-chloro-2-methyl-2H-indazol-5-yl)-5H-pyrrolo[2,3-b]pyrazin-3-yl]piperidin-3-ol, hydrochloride salt] | 0.022
Cn1cc2c(Cl)c(-c3c[nH]c4nc(N5CC[C@@H](N)[C@@H](F)C5)cnc34)ccc2n1 [Example 32, (3S,4R)-1-[7-(4-chloro-2-methyl-2H-indazol-5-yl)-5H-pyrrolo[2,3-b]pyrazin-3-yl]-3-fluoropiperidin-4-amine, hydrochloride salt] | 0.056
Cn1cc2c(Cl)c(-c3c[nH]c4nc(N5CC[C@H](N)[C@H](F)C5)cnc34)ccc2n1 [Example 33, (3R,4S)-1-[7-(4-chloro-2-methyl-2H-indazol-5-yl)-5H-pyrrolo[2,3-b]pyrazin-3-yl]-3-fluoropiperidin-4-amine, hydrochloride salt] | 0.033
Cn1cc2c(Cl)c(-c3c[nH]c4nc(N5[C@@H]6CC[C@H]5C[C@@H](N)C6)c(CO)nc34)ccc2n1 [Example 34, {3-[endo-3-amino-8-azabicyclo[3.2.1]octan-8-yl]-7-(4-chloro-2-methyl-2H-indazol-5-yl)-5H-pyrrolo[2,3-b]pyrazin-2-yl}methanol, hydrochloride salt] | 0.013
N[C@H]1C[C@H]2CC[C@@H](C1)N2c1cnc2c(-c3ccc4ccc(=O)[nH]c4c3Cl)c[nH]c2n1 [Example 35, 7-{3-[endo-3-amino-8-azabicyclo[3.2.1]octan-8-yl]-5H-pyrrolo[2,3-b]pyrazin-7-yl}-8-chloro-1,2-dihydroquinolin-2-one, hydrochloride salt] | 0.19
Cn1nc2ccc(-c3c[nH]c4nc(N5[C@@H]6CC[C@H]5C[C@@H](N)C6)cnc34)c(Cl)c2c1CO [Example 37, (5-{3-[endo-3-amino-8-azabicyclo[3.2.1]octan-8-yl]-5H-pyrrolo[2,3-b]pyrazin-7-yl}-4-chloro-2-methyl-2H-indazol-3-yl)methanol, methanesulfonic acid salt] | 0.051
Cn1cc2c(F)c(-c3c[nH]c4nc(N5[C@@H]6CC[C@H]5C[C@@H](N)C6)cnc34)ccc2n1 [Example 38, endo-8-[7-(4-fluoro-2-methyl-2H-indazol-5-yl)-5H-pyrrolo[2,3-b]pyrazin-3-yl]-8-azabicyclo[3.2.1]octan-3-amine] | 0.053
